Data reported in patent publication US12600696B2 (XENIOPRO GMBH, priority 2017, dated 2026).

System: C2C12 cells (murine myoblast cells)
Assay: alamarBlue proliferation assay with C2C12 cells
Format: cell-based
Details: 40 μM, 3 days treatment, single assay (preliminary), relative to DMSO basis level 1.0
Procedure: Compounds were tested on C2C12 cells using the alamarBlue® proliferation assay in analogy to the above described method with seeding the cells at an initial number of 2000 cells per 96-well and a duration of treatment with compounds for 3 days.
In one embodiment, two compounds of the invention were found so far to inhibit the growth of C2C12 cells (murine myoblast cells) obtainable from the Deutsche Sammlung von Mikroorganismen and Zellkulturen GmbH (DSMZ) under the accession number ACC 565. C2C12 cells were cultivated according to the protocol of the provider in RPMI 1640 medium (Fisherscientific, #11554526) containing 10% fetal bovine serum (Fisherscientific, #15517589).
A compound is considered as a growth inhibitor of C2C12 cells, if—at a reference concentration of 40 μM—the equally weighted arithmetic mean (AVE) of the six normalized fluorescence intensity values after addition of the corresponding standard deviation amounts to 0.9 or lower, in particular to 0.8 or lower, 0.7 or lower, 0.6 or lower, 0.4 or lower, and 0.2 or lower, relative to the overall basis level of 1.0. The overall basis level was calculated as the equally weighted arithmetic mean (AVE) of the six normalized values from the DMSO control measurements in analogy to the calculations performed for the test-compounds. […]

Compound: Oc1ccc(C=Cc2cc(O)cc(O)c2)cc1 [RES, resveratrol, reference compound]
- equally weighted arithmetic mean (AVE) of six normalized fluorescence intensity values, activity range: 0.3 ± 0.0
